# Measured values published in patent publication US9169240B2, “Ketone linked benzothiazole inhibitors of endothelial lipase” (BRISTOL-MYERS SQUIBB COMPANY, priority 2012, dated 2015).
# Biological target: Endothelial lipase (EL) (Homo sapiens (Human), UniProt Q9Y5X9)
# Assay: Endothelial lipase (EL) activity assay with fluorescent substrate A10070 in DMPG vesicles
# Assay type: biochemical
# Experimental: Endothelial lipase activity was measured using a fluorescent substrate, A10070, (Invitrogen, CA) doped into an artificial vesicle containing DMPG (Avanti Polar Lipids) as the excipient. Vesicles were prepared by combining 285 μL of 1 mM DMPG in a 1:1 mixture of MeOH and CHCl3 with 15 μL of 1 mM A10070 in a 1:1 mixture of MeOH and CHCl3. The mixture was dried under nitrogen and resuspended in 150 μL of 50 mM HEPES pH 8.0 buffer containing 100 mM NaCl and 0.2 mM EDTA. The sample was allowed to sit at rt for 15 min and then was sonicated 3×4 mins on ice with a Branson Sonicator using duty cycle 1. This preparation provides vesicles with a mole fraction of 0.05 for the FRET substrate.
# The enzymatic assay was measured using white, opaque 96-well half area plates. Each well contained 60 μL of assay buffer (50 mM HEPES pH 8.0, 50 mM NaCl and 1 mM CaCl2) and 2 ul of a DMSO solution containing compound of interest. Conditioned media obtained from HT-1080 cells, which were transformed by RAGE technology (Athersys) to overexpress endogenous EL, was added and the reaction was allowed to incubate for 20 min at 37° C. with gentle agitation. The reaction was started by the addition of 20 μL of a 1:4 dilution of vesicles. The final total reaction volume was 100 μL. The reaction rates were measured on a Gemini plate reader with an excitation wavelength of 488 nm and an emission of 530 nm. Readings were taken every 20 seconds for 10 min with agitation between each reading. The slope of the linear portion of the readout was used to calculate the rate of the reaction.
# Chain of Endothelial lipase (EL) (Q9Y5X9 21-500): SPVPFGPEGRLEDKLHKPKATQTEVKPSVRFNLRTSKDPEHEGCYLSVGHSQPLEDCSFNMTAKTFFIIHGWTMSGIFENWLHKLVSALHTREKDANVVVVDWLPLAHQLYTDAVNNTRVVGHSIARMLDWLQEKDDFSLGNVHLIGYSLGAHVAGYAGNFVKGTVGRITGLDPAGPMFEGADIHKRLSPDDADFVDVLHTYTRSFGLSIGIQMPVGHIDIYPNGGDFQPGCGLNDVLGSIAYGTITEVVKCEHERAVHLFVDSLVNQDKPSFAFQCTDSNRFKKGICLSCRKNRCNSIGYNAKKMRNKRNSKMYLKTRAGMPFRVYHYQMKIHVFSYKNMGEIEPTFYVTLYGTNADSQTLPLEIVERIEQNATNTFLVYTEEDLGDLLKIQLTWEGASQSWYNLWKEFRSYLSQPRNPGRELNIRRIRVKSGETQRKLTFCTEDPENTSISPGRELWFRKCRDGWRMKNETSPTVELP
row,Compound,IC50
1,"COCCNc1nnc(C(=O)c2nc3ccc(-c4ccccc4)cc3s2)o1 [Example 52, (5-((2-methoxyethyl)amino)-1,3,4-oxadiazol-2-yl)(6-phenylbenzo[d]thiazol-2-yl)methanone]",110 nM
2,"NS(=O)(=O)c1ccc(-c2ccc3nc(C(=O)c4nnc(N[C@H]5CCNC5=O)o4)sc3c2)cc1 [Example 83, (S)-4-(2-(5-((2-oxopyrrolidin-3-yl)amino)-1,3,4-oxadiazole-2-carbonyl)benzo[d]thiazol-6-yl)benzenesulfonamide]",< 10 nM
3,"O=C(c1nnc(N2CC[C@H](c3ccccc3)C2)o1)c1nc2ccc(-c3ccccc3)cc2s1 [Example 80, (R)-(6-phenylbenzo[d]thiazol-2-yl)(5-(3-phenylpyrrolidin-1-yl)-1,3,4-oxadiazol-2-yl)methanone]",450 nM
4,"O=C(c1nnc(NCCc2ccccc2F)o1)c1nc2ccc(-c3ccc(F)cc3)cc2s1 [Example 63, (5-((2-fluorophenethyl)amino)-1,3,4-oxadiazol-2-yl)(6-(4-fluorophenyl)benzo[d]thiazol-2-yl)methanone]",290 nM
5,"O=C(c1nnc(NC2CCCNC2=O)o1)c1nc2ccc(-c3ccccc3)cc2s1 (single isomer, unassigned) [Example 78, 3-((5-(6-phenylbenzo[d]thiazole-2-carbonyl)-1,3,4-oxadiazol-2-yl)amino)piperidin-2-one]",27 nM
6,"O=C(c1nnc(N2CC[C@H](OCc3ccccc3)C2)o1)c1nc2ccc(-c3ccccc3)cc2s1 [Example 81, (S)-(5-(3-(benzyloxy)pyrrolidin-1-yl)-1,3,4-oxadiazol-2-yl)(6-phenylbenzo[d]thiazol-2-yl)methanone]",490 nM
7,"C[C@H](Nc1nnc(C(=O)c2nc3ccc(-c4ccc(F)cc4)cc3s2)o1)c1ccc(Cl)cc1 [Example 65, (S)-(5-((1-(4-chlorophenyl)ethyl)amino)-1,3,4-oxadiazol-2-yl)(6-(4-fluorophenyl)benzo[d]thiazol-2-yl)methanone]",420 nM
8,"NS(=O)(=O)NCCc1nnc(C(=O)c2nc3ccc(-c4ccccc4)cc3s2)o1 [Example 28, N-(2-(5-((6-phenyl-1,3-benzothiazol-2-yl)carbonyl)-1,3,4-oxadiazol-2-yl)ethyl)sulfamide]",36 nM
9,"O=C(c1nnc(NCCc2ccc(F)cc2)o1)c1nc2ccc(-c3ccc(F)cc3)cc2s1 [Example 60, (5-((4-fluorophenethyl)amino)-1,3,4-oxadiazol-2-yl)(6-(4-fluorophenyl)benzo[d]thiazol-2-yl)methanone]",56 nM
10,"CC(C)(C)OC(=O)N[C@H]1CC[C@H](c2nnc(C(=O)c3nc4ccc(-c5ccccc5)cc4s3)o2)CC1 [Example 16, tert-butyl ((1r,4r)-4-(5-(6-phenylbenzo[d]thiazole-2-carbonyl)-1,3,4-oxadiazol-2-yl)cyclohexyl)carbamate]",31 nM
11,"CC(C)NC(=O)CNc1nnc(C(=O)c2nc3ccc(-c4ccccc4)cc3s2)o1 [Example 74, N-isopropyl-2-((5-(6-phenylbenzo [d]thiazole-2-carbonyl)-1,3,4-oxadiazol-2-yl)amino)acetamide]",150 nM
12,"O=C(c1nnc(C2CCN(Cc3ccc(F)cc3)CC2)o1)c1nc2ccc(-c3ccccc3)cc2s1 [Example 17, (5-(1-(4-fluorobenzyl)piperidin-4-yl)-1,3,4-oxadiazol-2-yl)(6-phenylbenzo[d]thiazol-2-yl)methanone]",< 10 nM
13,"NS(=O)(=O)Cc1nnc(C(=O)c2nc3c(F)cc(-c4ccccc4)cc3s2)o1 [Example 12, (5-(4-fluoro-6-phenylbenzo[d]thiazole-2-carbonyl)-1,3,4-oxadiazol-2-yl)methanesulfonamide]",< 10 nM
14,"O=C(c1nnc(CC2CCNC2=O)o1)c1nc2ccc(-c3ccccc3)cc2s1 (centres unmarked) [Example 3, 3-((5-(6-phenylbenzo[d]thiazole-2-carbonyl)-1,3,4-oxadiazol-2-yl)methyl)pyrrolidin-2-one]",< 10 nM
15,"CC1(Cc2nnc(C(=O)c3nc4ccc(-c5ccccc5)cc4s3)o2)NC(=O)NC1=O (centres unmarked) [Example 34, 5-methyl-5-((5-(6-phenylbenzo[d]thiazole-2-carbonyl)-1,3,4-oxadiazol-2-yl)methyl)-imidazol-idine-2,4-dione]",< 10 nM
16,"O=C(c1nnc(CCc2nc3ccccc3[nH]2)o1)c1nc2c(F)cc(-c3ccccc3)cc2s1 [Example 14, (5-(2-(1H-benzo[d]imidazol-2-yl)ethyl)-1,3,4-oxadiazol-2-yl)(4-fluoro-6-phenylbenzo[d]thiazol-2-yl)methanone]",< 10 nM

row,Compound,IC50
1,"NC(=O)CNc1nnc(C(=O)c2nc3ccc(-c4ccccc4)cc3s2)o1 [Example 58, 2-((5-(6-phenylbenzo[d]thiazole-2-carbonyl)-1,3,4-oxadiazol-2-yl)amino) acetamide]",104 nM
2,"O=C(c1nnc(N2CC[C@@H](c3ccccc3)C2)o1)c1nc2ccc(-c3ccccc3)cc2s1 [Example 79, (S)-(6-phenylbenzo[d]thiazol-2-yl)(5-(3-phenylpyrrolidin-1-yl)-1,3,4-oxadiazol-2-yl)methanone]",310 nM
3,"O=C(c1nnc(N[C@H]2CCOC2=O)o1)c1nc2ccc(-c3ccccc3)cc2s1 [Example 57, (S)-3-((5-(6-phenylbenzo[d]thiazole-2-carbonyl)-1,3,4-oxadiazol-2-yl)amino)dihydrofuran-2(3H)-one]",22 nM
4,"CN1CCC(Nc2nnc(C(=O)c3nc4ccc(-c5ccccc5)cc4s3)o2)C1=O (centres unmarked) [Example 70, 1-methyl-3-((5-(6-phenylbenzo[d]thiazole-2-carbonyl)-1,3,4-oxadiazol-2-yl)amino)pyrrolidin-2-one]",190 nM
5,"CC(C)N1C(=O)NC(C)(Cc2nnc(C(=O)c3nc4ccc(-c5ccccc5)cc4s3)o2)C1=O (centres unmarked) [Example 39, 3-isopropyl-5-methyl-5-((5-(6-phenylbenzo-[d]thiazole-2-carbonyl)-1,3,4-oxadiazol-2-yl)methyl)-imidazol-idine-2,4-dione]",< 10 nM
6,"Cc1ccc(S(=O)(=O)Nc2nnc(C(=O)c3nc4ccc(-c5ccccc5)cc4s3)o2)cc1 [Example 90, 4-Methyl-N-(5-(6-phenylbenzo[d]thiazole-2-carbonyl)-1,3,4-oxadiazol-2-yl)benzenesulfonamide]",340 nM
7,"COC(=O)[C@H](COC(C)(C)C)Nc1nnc(C(=O)c2nc3ccc(-c4ccc(F)cc4)cc3s2)o1 [Example 61, (S)-methyl 3-(tert-butoxy)-2-((5-(6-(4-fluorophenyl)benzo[d]thiazole-2-carbonyl)-1,3,4-oxadiazol-2-yl)amino)propanoate]",140 nM
8,"NC(=O)NCc1nnc(C(=O)c2nc3ccc(-c4ccccc4)cc3s2)o1 [Example 49, 1-((5-(6-Phenylbenzo[d]thiazole-2-carbonyl)-1,3,4-oxadiazol-2-yl)methyl)urea]",25 nM
9,"O=C(c1nnc(N(Cc2ccccc2)[C@H]2CCNC2=O)o1)c1nc2ccc(-c3ccccc3)cc2s1 [Example 87, (S)-3-(Benzyl(5-(6-phenylbenzo[d]thiazole-2-carbonyl)-1,3,4-oxadiazol-2-yl)amino)pyrrolidin-2-one]",11 nM
10,"O=C(c1nnc(N[C@H]2CCNC2=O)o1)c1nc2ccc(-c3ccc(F)cc3)cc2s1 [Example 54, (S)-3-((5-(6-(4-fluorophenyl)benzo [d]thiazole-2-carbonyl)-1,3,4-oxadiazol-2-yl)amino)pyrrolidin-2-one]",< 10 nM
11,"O=C(c1nnc(NCCc2ccc(Cl)cc2)o1)c1nc2ccc(-c3ccc(F)cc3)cc2s1 [Example 64, (5-((4-chlorophenethyl)amino)-1,3,4-oxadiazol-2-yl)(6-(4-fluorophenyl)benzo[d]thiazol-2-yl)methanone]",6.6 nM
12,"O=C(c1nnc(CCc2ncc[nH]2)o1)c1nc2ccc(-c3ccccc3)cc2s1 [Example 8, (5-(2-(1H-imidazol-2-yl)ethyl)-1,3,4-oxadiazol-2-yl)(6-phenylbenzo[d]thiazol-2-yl)methanone]",11 nM
13,"NC(=O)c1ccc(-c2ccc3nc(C(=O)c4nnc(N[C@H]5CCNC5=O)o4)sc3c2)cc1 [Example 51, (S)-4-(2-(5-((2-Oxopyrrolidin-3-yl)amino)-1,3,4-oxadiazole-2-carbonyl)benzo[d]thiazol-6-yl)benzamide]",< 10 nM
14,"CN(Cc1nnc(C(=O)c2nc3ccc(-c4ccccc4)cc3s2)o1)S(N)(=O)=O [Example 27, N-methyl-N-((5-((6-phenyl-1,3-benzothiazol-2-yl)carbonyl)-1,3,4-oxadiazol-2-yl)methyl)sulfamide]",23 nM
15,"CC(C)(C)CN1CCC(c2nnc(C(=O)c3nc4ccc(-c5ccccc5)cc4s3)o2)CC1 [Example 45, (5-(1-Neopentylpiperidin-4-yl)-1,3,4-oxadiazol-2-yl)(6-phenylbenzo[d]thiazol-2-yl)methanone]",14 nM
16,"O=C(c1nnc(CC2NC(=O)N(c3ccccc3)C2=O)o1)c1nc2ccc(-c3ccccc3)cc2s1 (centres unmarked) [Example 41, 3-phenyl-5-((5-(6-phenylbenzo[d]thiazole-2-carbonyl)-1,3,4-oxadiazol-2-yl)methyl)-imidazol-idine-2,4-dione]",16 nM
